The results in this text go back to US20200165257A1, “INHIBITORS OF PHOSPHOINOSITIDE 3-KINASE AND HISTONE DEACETYLASE FOR TREATMENT OF CANCER” (THE UNITED STATES OF AMERICA, AS REPRESENTED BY THE …, priority 2017, published 2020).

Like-named read-outs stand apart in the source and are kept apart here. Where only a bound is given, the exact number is not on record here.

Assay [1] concerns the target PI3Kδ (Homo sapiens, UniProt O00329). The experiment in a line: PI3Kδ kinase assay (HTRF). The format is biochemical. As to conditions: for inhibition at 1 µM: symbols ** / *, read-out: PI3Kδ Inhibition Activity (% Inhibition class). How it is done:
(§1) The PIP3 product is detected by displacement of biotin-PIP3 from an energy transfer complex consisting of Europium labeled anti-GST monoclonal antibody, a GST-tagged pleckstrin homology (PH) domain, biotinylated PIP3 and Streptavidin-Allophycocyanin (APC). […] The PIP3 product formed by PI 3-Kinase(h) activity displaces biotin-PIP3 from the complex resulting in a loss of energy transfer, and thus, a decrease in signal.
(§2) First, the kinase reaction with PIP2 substrate is carried out in the presence of ATP, and the reaction is quenched with stop Solution, and then, finally detect by adding Detection Mixture followed by incubation.
(§3) HEPES 50 mM (pH7.0), NaN3 0.02%, BSA 0.01%, Orthovanadate 0.1 mM, 1% DMSO.
(§4) Detection buffer: HEPES 10 mM (pH7.0), BSA 0.02%, KF 0.16 M, EDTA 4 mM.
(§5) 10 μM PIP2 substrate (PI(4,5)P2)
(§6) 10 μM ATP under standard conditions
(§7) 1. Prepare substrate in freshly prepared Reaction Buffer.
(§8) 2. Deliver kinase into the substrate solution and gently mix.
(§9) 3. Deliver compounds in 100% DMSO into the kinase reaction mixture by Acoustic technology (Echo550; nanoliter range), incubate for 10 min at room temperature.
(§10) 4. Deliver ATP into the reaction mixture to initiate the reaction.
(§11) 5. Incubate for 30 min at 30° C.
(§12) 6. Quench the reaction with Stop Solution.
(§13) 7. Add Detection Mixture, and incubate for overnight.
(§14) The emission ratio is converted into μM PIP3 production based on PIP3 standard curves.
(§15) The nonlinear regression to obtain the standard curve and IC50 values are performed using Graphpad Prism software.
In general terms: TR-FRET usually uses a lanthanide donor and a delayed reading to cut background.

For assay [2], the target named is PI3Kα (Homo sapiens, UniProt P42336). The experiment in a line: PI3Kα kinase assay (HTRF). The class given is biochemical. How it is done:
as §1, §2, §3, §4, §5, §6, §7, §8, §9, §10, §11, §12, §13, §14, §15

Assay [3] deals with PI3Kβ (Homo sapiens, UniProt P42338). Nature of the assay: PI3Kβ kinase assay (HTRF). The format is biochemical. As to the method:
as §1, §2, §3, §4, §5, §6, §7, §8, §9, §10, §11, §12, §13, §14, §15

Assay [4] deals with PI3Kγ (Homo sapiens, UniProt P48736). The experiment in a line: PI3Kγ kinase assay (HTRF). The format is biochemical. How it is done:
as §1, §2, §3, §4, §5, §6, §7, §8, §9, §10, §11, §12, §13, §14, §15

The target of assay [5] is T1, HDAC6 (Homo sapiens, UniProt Q9UBN7).
T1 sequence (Q9UBN7 1-1215): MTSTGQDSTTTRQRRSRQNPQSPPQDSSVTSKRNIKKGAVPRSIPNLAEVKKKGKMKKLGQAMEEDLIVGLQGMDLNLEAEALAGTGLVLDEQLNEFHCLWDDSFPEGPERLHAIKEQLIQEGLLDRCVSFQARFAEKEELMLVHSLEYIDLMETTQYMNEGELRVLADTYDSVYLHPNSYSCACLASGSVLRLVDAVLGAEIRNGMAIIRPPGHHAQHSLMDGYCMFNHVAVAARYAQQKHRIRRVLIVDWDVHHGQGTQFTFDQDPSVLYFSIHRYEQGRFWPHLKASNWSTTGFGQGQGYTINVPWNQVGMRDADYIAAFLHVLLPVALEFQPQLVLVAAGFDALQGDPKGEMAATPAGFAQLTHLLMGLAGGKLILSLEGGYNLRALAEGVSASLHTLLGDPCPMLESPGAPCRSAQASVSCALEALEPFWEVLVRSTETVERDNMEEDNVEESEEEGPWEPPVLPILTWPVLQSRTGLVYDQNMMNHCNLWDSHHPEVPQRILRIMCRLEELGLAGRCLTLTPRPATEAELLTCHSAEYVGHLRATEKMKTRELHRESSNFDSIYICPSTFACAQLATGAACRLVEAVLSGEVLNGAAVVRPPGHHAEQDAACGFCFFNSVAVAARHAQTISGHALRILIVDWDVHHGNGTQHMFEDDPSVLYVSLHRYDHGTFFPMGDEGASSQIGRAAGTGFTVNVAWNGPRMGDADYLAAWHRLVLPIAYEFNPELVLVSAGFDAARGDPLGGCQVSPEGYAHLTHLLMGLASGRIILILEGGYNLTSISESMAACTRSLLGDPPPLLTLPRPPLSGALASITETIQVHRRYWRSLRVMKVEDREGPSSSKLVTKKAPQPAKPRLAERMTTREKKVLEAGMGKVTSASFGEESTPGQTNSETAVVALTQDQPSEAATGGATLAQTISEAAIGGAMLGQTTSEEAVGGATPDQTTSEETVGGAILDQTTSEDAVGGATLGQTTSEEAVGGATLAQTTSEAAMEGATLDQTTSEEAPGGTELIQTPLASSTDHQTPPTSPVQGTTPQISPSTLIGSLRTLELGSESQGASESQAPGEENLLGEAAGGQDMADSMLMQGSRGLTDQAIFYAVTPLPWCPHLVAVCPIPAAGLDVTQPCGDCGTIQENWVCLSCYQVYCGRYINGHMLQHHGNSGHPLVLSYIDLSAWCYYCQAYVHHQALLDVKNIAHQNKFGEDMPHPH
The experiment in a line: HDAC Fluorescent Activity Assay. The format is biochemical. As to conditions: for inhibition at 1 µM: symbols ** / *, read-out: HDAC6 Inhibition Activity (% Inhibition class). As to the method: This protocol is to determine the IC50s or percentage of inhibition values of the test compound against HDACs.
The HDAC Fluorescent Activity Assay is based on the unique Fluorogenic Substrate and Developer combination. […] First, the Fluorogenic Substrate, which comprises an acetylated lysine side chain, is incubated with a purified HDAC enzyme. Deacetylation of the substrate sensitizes the substrate so that, in the second step, treatment with the Developer produces a fluorophore.
Testing compounds were dissolved in 100% DMSO to specific concentration. […]
1. Deliver 2× enzyme in wells of reaction plate except No Enzyme control wells. Add buffer in No En wells.
2. Deliver compounds in 100% DMSO into the enzyme mixture by Acoustic technology (Echo550; nanoliter range). Spin down and pre-incubation.
3. Deliver 2× Substrate Mixture (Fluorogenic HDAC Substrate and co-factor if applicable) in all reaction wells to initiate the reaction. Spin and shake.
4. Incubate for 1-2 hr at 30° C. with seal.
5. Add Developer with Trichostatin A (or TMP269) to stop the reaction and to generate fluorescent color.
6. Fluorescence was read (excitatory, 360; emission, 460) using the EnVision Multilabel
7. Take endpoint reading for analysis after the development reaches plateau.
The percentages of enzyme activity (relative to DMSO controls) and IC50 values were calculated using the GraphPad Prism 4 program based on a sigmoidal dose-response equation.

The test system of assay [6] is Leukemia Cell Line MOLT-4. The class given is cell-based. As to conditions: Homo sapiens.
For assay [7], the system named is Leukemia Cell Line RPMI-8226. The format is cell-based. To be noted: Homo sapiens.
Assay [8] has as its system Leukemia Cell Line SR. Nature of the assay: cells. The format is cell-based. To be noted: Homo sapiens, read-out: inhibition of proliferation.
The test system of assay [9] is Breast Cancer Cell Line HS 578T. The format is cell-based. As to conditions: Homo sapiens, read-out: inhibition of proliferation.
Assay [10] has as its system Breast Cancer Cell Line MDA-MB-468. The experiment in a line: cells. To be noted: Homo sapiens, MDA-MB-468, read-out: inhibition of proliferation.
In assay [11] the test system is Leukemia Cell Line CCRF-CEM. Nature of the assay: cells. As to conditions: Homo sapiens, read-out: inhibition of proliferation. The class given is cell-based.
Assay [12] deals with Leukemia Cell Line HL-60(TB). The format is cell-based. To be noted: Homo sapiens.
The subject of assay [13] is Melanoma Cell Line UACC-62. The experiment in a line: cells. The class given is cell-based. As to conditions: Homo sapiens.
The test system of assay [14] is Ovarian Cell Line IGROV1. The class given is cell-based. To be noted: Homo sapiens.
Assay [15] has as its system Breast Cancer Cell Line BT-549. Nature of the assay: cells. The format is cell-based. To be noted: Homo sapiens, BT-549, read-out: inhibition of proliferation.
For assay [16], the system named is Ovarian Cell Line OVCAR-8. Nature of the assay: cells. The format is cell-based. As to conditions: Homo sapiens, OVCAR-8, read-out: inhibition of proliferation.
Assay [17] deals with Ovarian Cell Line OVCAR-3. The experiment in a line: cells. To be noted: Homo sapiens, OVCAR-3, read-out: inhibition of proliferation.
The mark [18] stands for this setting: HS 578T, single dose, 10 uM compound concentration.
Setting [19] is: HL-60, read-out: inhibition of proliferation.
[20] abbreviates: UACC-62, read-out: inhibition of proliferation.
Setting [21] is: IGROV-1, read-out: inhibition of proliferation.
Setting [22] is: MOLT-4, read-out: inhibition of proliferation.
[23] abbreviates: RPMI-8226, read-out: inhibition of proliferation.

PI3Kδ, sequence (O00329 whole entry): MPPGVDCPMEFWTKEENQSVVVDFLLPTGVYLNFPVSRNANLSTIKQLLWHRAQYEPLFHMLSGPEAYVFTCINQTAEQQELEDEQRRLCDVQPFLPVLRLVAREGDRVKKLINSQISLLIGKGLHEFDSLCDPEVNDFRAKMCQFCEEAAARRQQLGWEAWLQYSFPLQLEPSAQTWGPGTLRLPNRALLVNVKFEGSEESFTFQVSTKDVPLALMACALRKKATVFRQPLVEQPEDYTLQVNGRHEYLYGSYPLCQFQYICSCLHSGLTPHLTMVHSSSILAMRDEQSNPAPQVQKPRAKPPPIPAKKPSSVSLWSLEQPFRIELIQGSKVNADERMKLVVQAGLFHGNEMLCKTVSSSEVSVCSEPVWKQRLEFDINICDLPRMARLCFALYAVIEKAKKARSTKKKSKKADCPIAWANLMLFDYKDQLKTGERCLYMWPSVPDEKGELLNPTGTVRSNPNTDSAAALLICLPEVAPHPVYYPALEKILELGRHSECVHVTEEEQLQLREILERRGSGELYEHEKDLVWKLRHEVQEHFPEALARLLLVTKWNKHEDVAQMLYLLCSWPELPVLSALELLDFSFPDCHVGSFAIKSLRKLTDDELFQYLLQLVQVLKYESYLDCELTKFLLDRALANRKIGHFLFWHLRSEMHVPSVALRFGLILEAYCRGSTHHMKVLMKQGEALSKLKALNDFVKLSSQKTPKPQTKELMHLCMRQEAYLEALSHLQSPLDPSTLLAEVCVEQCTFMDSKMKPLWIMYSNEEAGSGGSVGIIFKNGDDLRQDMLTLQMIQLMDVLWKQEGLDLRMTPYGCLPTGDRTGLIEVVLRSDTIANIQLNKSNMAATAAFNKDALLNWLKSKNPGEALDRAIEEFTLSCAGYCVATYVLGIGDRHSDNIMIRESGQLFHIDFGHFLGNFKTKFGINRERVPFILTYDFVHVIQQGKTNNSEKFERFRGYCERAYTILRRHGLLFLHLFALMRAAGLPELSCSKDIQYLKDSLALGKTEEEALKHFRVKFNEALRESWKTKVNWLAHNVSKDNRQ
PI3Kδ, sequence (P27986 whole entry partner): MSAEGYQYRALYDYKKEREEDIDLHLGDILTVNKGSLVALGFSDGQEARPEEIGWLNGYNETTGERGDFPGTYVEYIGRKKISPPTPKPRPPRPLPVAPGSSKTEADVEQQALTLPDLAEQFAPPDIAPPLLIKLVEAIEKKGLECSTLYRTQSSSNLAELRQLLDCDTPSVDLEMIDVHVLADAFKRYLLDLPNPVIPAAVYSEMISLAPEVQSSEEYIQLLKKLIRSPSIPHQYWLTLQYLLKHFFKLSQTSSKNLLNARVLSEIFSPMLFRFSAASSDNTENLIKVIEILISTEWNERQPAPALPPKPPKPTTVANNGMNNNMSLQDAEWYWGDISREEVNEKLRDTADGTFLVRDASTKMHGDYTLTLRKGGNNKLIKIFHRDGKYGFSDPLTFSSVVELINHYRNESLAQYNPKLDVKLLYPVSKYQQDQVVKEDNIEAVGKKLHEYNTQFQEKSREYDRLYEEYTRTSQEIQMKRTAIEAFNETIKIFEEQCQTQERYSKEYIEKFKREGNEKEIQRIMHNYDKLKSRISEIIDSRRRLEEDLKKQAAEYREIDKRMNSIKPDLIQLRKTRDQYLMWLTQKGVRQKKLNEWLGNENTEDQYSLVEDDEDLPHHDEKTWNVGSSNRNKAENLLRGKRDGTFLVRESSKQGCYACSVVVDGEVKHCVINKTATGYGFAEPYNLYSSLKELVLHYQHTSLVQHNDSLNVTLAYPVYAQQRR
PI3Kα, sequence (P42336 whole entry): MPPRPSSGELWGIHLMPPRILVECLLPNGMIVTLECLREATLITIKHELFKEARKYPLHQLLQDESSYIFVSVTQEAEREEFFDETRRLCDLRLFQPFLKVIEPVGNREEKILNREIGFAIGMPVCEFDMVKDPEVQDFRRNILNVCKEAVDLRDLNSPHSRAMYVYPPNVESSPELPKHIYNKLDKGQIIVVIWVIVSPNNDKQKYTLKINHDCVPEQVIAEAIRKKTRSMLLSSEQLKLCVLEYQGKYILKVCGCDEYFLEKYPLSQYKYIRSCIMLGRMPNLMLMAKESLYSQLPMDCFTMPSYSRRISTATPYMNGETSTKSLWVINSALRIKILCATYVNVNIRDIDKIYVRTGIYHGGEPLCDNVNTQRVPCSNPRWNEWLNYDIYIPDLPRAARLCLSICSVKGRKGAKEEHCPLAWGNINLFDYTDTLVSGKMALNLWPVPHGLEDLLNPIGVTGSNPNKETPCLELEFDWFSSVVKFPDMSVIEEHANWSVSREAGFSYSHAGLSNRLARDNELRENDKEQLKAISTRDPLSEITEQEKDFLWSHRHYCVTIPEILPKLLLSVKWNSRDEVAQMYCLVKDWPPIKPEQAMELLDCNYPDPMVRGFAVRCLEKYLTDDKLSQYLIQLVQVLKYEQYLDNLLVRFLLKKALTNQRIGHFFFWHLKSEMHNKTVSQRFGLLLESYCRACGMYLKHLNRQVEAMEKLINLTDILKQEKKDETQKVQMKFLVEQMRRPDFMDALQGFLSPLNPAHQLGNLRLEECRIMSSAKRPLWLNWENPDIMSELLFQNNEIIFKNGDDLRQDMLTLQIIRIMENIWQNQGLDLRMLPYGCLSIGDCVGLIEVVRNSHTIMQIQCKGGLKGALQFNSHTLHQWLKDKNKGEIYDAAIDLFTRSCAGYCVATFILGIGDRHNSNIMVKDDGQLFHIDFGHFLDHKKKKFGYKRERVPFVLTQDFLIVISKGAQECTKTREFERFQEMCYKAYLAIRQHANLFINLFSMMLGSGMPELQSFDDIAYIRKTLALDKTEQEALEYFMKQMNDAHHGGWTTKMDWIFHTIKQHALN
PI3Kα, sequence (P27986 whole entry partner): as the sequence (P27986 whole entry partner) above
PI3Kβ, sequence (P42338 whole entry): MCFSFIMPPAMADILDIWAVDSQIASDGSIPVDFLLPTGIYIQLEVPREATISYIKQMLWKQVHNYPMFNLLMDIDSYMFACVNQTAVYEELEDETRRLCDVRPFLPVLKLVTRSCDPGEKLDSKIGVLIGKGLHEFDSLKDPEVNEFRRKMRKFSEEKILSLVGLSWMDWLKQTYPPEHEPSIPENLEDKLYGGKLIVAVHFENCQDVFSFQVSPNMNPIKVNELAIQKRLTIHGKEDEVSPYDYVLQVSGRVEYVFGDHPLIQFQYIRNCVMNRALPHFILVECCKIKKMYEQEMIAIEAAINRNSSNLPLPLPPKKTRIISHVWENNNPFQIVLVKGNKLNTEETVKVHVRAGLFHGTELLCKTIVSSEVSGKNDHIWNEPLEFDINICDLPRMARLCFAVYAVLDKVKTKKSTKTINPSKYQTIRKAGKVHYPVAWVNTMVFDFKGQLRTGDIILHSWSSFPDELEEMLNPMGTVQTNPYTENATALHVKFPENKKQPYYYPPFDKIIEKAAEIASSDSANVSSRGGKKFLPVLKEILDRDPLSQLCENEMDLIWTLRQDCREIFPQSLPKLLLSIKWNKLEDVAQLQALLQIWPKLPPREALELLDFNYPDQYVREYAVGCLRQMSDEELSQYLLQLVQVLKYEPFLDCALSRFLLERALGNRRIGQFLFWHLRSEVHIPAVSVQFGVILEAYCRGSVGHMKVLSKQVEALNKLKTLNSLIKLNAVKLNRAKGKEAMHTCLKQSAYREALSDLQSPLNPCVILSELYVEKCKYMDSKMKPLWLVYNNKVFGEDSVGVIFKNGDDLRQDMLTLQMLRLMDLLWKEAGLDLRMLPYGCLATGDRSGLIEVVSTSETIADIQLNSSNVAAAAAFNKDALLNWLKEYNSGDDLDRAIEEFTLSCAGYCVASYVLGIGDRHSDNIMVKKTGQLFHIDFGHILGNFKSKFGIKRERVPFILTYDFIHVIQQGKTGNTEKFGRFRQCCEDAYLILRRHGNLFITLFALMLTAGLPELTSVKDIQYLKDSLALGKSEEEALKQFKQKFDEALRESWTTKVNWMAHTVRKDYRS
PI3Kβ, sequence (P27986 whole entry partner): as the sequence (P27986 whole entry partner) above
PI3Kγ, sequence (P48736 whole entry): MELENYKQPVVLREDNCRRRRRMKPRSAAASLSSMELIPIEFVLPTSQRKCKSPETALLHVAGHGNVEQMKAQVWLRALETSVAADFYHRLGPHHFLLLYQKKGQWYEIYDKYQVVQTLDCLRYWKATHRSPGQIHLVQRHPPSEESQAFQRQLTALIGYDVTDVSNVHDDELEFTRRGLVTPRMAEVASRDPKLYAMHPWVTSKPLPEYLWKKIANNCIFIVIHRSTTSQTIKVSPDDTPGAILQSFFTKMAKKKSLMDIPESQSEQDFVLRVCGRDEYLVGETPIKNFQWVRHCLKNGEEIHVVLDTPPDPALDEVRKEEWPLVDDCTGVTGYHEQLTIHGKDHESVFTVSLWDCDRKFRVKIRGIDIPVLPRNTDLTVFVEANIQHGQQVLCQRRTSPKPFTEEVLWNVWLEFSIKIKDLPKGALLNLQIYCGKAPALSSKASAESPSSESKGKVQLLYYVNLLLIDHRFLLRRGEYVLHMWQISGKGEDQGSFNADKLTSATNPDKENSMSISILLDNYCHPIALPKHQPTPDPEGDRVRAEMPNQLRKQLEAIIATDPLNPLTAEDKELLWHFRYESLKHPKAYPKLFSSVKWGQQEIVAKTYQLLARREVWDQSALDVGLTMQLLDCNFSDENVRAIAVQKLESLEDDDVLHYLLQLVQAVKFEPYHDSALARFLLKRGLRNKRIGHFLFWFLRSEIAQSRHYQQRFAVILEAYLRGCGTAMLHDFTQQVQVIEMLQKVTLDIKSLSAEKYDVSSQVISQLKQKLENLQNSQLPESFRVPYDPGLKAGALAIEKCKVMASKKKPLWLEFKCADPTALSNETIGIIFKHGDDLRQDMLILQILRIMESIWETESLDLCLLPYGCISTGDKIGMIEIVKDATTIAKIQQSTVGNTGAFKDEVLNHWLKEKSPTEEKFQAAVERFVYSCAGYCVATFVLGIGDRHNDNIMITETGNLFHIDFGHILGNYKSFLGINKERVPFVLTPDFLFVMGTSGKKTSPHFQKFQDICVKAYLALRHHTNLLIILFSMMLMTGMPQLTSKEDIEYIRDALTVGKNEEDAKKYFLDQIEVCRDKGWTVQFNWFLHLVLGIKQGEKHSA

Regarding `CC[C@H](Nc1ncnc2[nH]cnc12)c1nc2cccc(CC(=O)c3ccc(C(=O)NO)cc3)c2c(=O)n1-c1ccccc1` [Compound I, (S)-4-(2-(2-(1-((9H-purin-6-yl)amino)propyl)-4-oxo-3-phenyl-3,4-dihydroquinazolin-5-yl)acetyl)-N-hydroxybenzamide], the inhibition at 1 µM in assay [1] was > 90%; in [2], < 85%; in [3], < 85%; in assay [4] it was < 85%; in [5], > 90%. The inhibition at 10 µM in assay [6] (MOLT-4, single dose, 10 uM compound concentration, read-out: inhibition of proliferation) is 25 to 50%; in [7] (RPMI-8226, single dose, 10 uM compound concentration, read-out: inhibition of proliferation), > 50%; in assay [8] (SR, single dose, 10 uM compound concentration) it was 25 to 50%; in [9] (setting [18]) it was 25 to 50%; in assay [10], 25 to 50%.

`CC[C@H](Nc1ncnc2[nH]cnc12)c1nc2cccc(CCCCNC(=O)NO)c2c(=O)n1-c1ccccc1` [Compound XXIV]: the IC50 is < 0.1 µM in assay [1] (symbols ++ / +, read-out: PI3Kδ Inhibition Activity (IC50 class)) and > 0.1 µM in [5] (symbols ++ / +, read-out: HDAC6 Inhibition Activity (IC50 class)). In addition, the figures for the inhibition at 1 µM in assay [2], in assay [3] and in assay [4] were < 85%, < 85% and 91%, respectively. Further, the inhibition at 10 µM in assay [11] was 25 to 50%; in [12] (setting [19]), > 50%; in [8], 25 to 50%; in [13] (setting [20]), 25 to 50%; in assay [14] (setting [21]), > 50%; in assay [9] (Hs-578T), 25 to 50%. Besides, the inhibition at 10 µM in assay [15] and in [10] was 25 to 50% throughout.

As for `CC[C@H](Nc1ncnc2[nH]cnc12)c1nc2cccc(CCCCC(=O)NO)c2c(=O)n1-c1ccccc1` [XII, (S)-5-(2-(1-((9H-purin-6-yl)amino)propyl)-4-oxo-3-phenyl-3,4-dihydroquinazolin-5-yl)-N-hydroxypentanamide], the inhibition at 10 µM in [11] is 25 to 50%; in [6] (setting [22]), 25 to 50%; in assay [7] (setting [23]), > 50%; in assay [8] it was > 50%; in assay [9] (Hs-578T), 25 to 50%; in [10], 25 to 50%.

Regarding `CC[C@H](Nc1cc(C)nc(N)n1)c1nc2cccc(NCc3ccc(C(=O)NO)cc3)c2c(=O)n1-c1ccccc1` [XLI, (S)-4-(((2-(1-((2-amino-6-methylpyrimidin-4-yl)amino)propyl)-4-oxo-3-phenyl-3,4-dihydroquinazolin-5-yl)amino)methyl)-N-hydroxybenzamide], the inhibition at 10 µM in assay [11], in assay [12] (setting [19]), in assay [6] (setting [22]), in assay [7] (setting [23]), in [13] (setting [20]) and in assay [14] (setting [21]) was > 50% each time. Further, the inhibition at 10 µM in assay [16], in [9] (Hs-578T), in assay [15], in assay [17] and in assay [10] was > 50% throughout.

Regarding `CC[C@H](Nc1nc(N)nc(C)c1C#N)c1nc2cccc(N3CCC(CC(=O)NO)CC3)c2c(=O)n1-c1ccccc1` [XLIX, (S)-2-(1-(2-(1-((2-amino-5-cyano-6-methylpyrimidin-4-yl)amino)propyl)-4-oxo-3-phenyl-3,4-dihydroquinazolin-5-yl)piperidin-4-yl)-N-hydroxyacetamide], the inhibition at 1 µM in assay [1] is > 90%; in [5], < 90%. Moreover, the inhibition at 10 µM in [11] (single dose, 10 uM compound concentration) fell in the range of 25 to 50%; in assay [12] (HL-60(TB), single dose, 10 uM compound concentration, read-out: inhibition of proliferation), 25 to 50%; in assay [13] (UACC-62, single dose, 10 uM compound concentration, read-out: inhibition of proliferation) it was 25 to 50%; in assay [14] (IGROV-1, IGROV1, single dose, 10 uM compound concentration, read-out: inhibition of proliferation) it was 25 to 50%; in assay [9] (setting [18]), 25 to 50%; in assay [10], 25 to 50%.

`CC[C@H](Nc1ncnc2[nH]cnc12)c1nc(-c2ccc(C(=O)NO)cc2)c2ccccc2n1` [XXXIV, (S)-4-(2-(1-((9H-purin-6-yl)amino)propyl)quinazolin-4-yl)-N-hydroxybenzamide]: the inhibition at 1 µM in [1] is < 90%; in assay [2] it was < 85%; in [3], < 85%; in assay [4], < 85%; in [5], > 90%.

In general, IC50 refers to the midpoint of a concentration-inhibition curve.
